# Measurements reported in ChEMBL document CHEMBL4130353, “2-Substituted 3,7,8-trimethylnaphtho[1,2-b]furan-4,5-diones as specific L-shaped NQO1-mediated redox modulators for the treatment of non-small cell lung cancer” (Eur J Med Chem, 2017).
# Columns and labels:
# [1] = molecular target: T1, NADPH--cytochrome P450 reductase (Homo sapiens, UniProt P16435); experiment: Substrate activity at human CPR expressed in baculovirus expression system assessed as reduction rate by measuring umol of NADPH utilized per umol of enzyme at 10 uM preincubated for 3 mins followed by NADPH addition measured at 2 secs interval for 5 mins by UV-Vis spectroscopy; type: ADME
# T1 sequence (P16435 whole entry): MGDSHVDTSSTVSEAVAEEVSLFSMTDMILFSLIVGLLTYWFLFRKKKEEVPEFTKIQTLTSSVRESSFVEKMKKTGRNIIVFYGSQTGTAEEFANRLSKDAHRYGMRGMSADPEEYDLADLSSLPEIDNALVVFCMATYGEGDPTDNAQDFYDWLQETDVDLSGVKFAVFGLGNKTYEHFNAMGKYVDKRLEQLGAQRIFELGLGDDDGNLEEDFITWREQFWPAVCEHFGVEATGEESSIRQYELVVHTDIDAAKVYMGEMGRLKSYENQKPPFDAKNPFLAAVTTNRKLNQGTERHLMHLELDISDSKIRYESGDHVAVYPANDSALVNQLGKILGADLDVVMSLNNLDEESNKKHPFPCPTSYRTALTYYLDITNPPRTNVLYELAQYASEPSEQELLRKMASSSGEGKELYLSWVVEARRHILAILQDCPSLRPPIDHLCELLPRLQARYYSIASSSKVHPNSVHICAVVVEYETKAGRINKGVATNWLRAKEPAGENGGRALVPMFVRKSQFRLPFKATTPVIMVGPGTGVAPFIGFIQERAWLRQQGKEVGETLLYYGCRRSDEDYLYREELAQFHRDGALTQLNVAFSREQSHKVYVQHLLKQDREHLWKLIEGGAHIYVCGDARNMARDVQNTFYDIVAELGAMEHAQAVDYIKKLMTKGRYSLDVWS
# [2] = test system: A549; experiment: Effect on total p38 protein levels in human A549 cells at 10 uM after 3 hrs in presence of NAC by Western blot analysis relative to control; type: ADME, cell-based; settings: a549, 3 h
# [3] = test system: Mus musculus; experiment: Toxicity in athymic nude mouse xenografted with human A549 cells assessed as effect on body weight at 50 mg/kg, iv administered every other day for 3 weeks; type: organism-based; settings: in vivo, 504 h
# [4] = molecular target: NAD(P)H dehydrogenase [quinone] 1 (Homo sapiens) (UniProt P15559); experiment: Substrate activity at NQO1 in human A549 cells assessed as induction of ROS-induced Akt phosphorylation at […] at 5 uM after 3 hrs by Western blot analysis relative to control; type: cell-based
# [5] = Intrinsic solubility of the compound; type: physicochemical; settings: read-out: Intrinsic_solubility
# [6] = molecular target: NAD(P)H dehydrogenase [quinone] 1 (Homo sapiens) (UniProt P15559); experiment: Substrate activity at NQO1 in human A549 cells assessed as induction of ROS-induced ERK phosphorylation at 1 uM after 3 hrs by Western blot analysis relative to control; type: cell-based
# [7] = Solubility of the compound in diluted HCl buffer at pH 3; type: physicochemical
# [8] = molecular target: NAD(P)H dehydrogenase [quinone] 1 (Homo sapiens) (UniProt P15559); experiment: Substrate activity at NQO1 in human A549 cells assessed as induction of enzyme-catalyzed lipid peroxidation by measuring MDA equivalents per protein at 10 uM after 24 hrs by TBARS assay; type: cell-based
# [9] = test system: Mus musculus; experiment: Toxicity in athymic nude mouse xenografted with human A549 cells assessed as reduction in body weight at 50 mg/kg, iv administered every other day for 3 weeks relative to control; type: organism-based; parameters: scale not given: the % may be the effect or the level left; settings: in vivo, 504 h
# [10] = test system: A549; experiment: Effect on total ERK protein levels in human A549 cells at 1 uM after 3 hrs by Western blot analysis relative to control; type: ADME, cell-based; settings: a549, 3 h
# [11] = test system: A549; experiment: Effect on total p38 protein levels in human A549 cells at 5 uM after 3 hrs by Western blot analysis relative to control; type: ADME, cell-based; settings: a549, 3 h
# NAD(P)H dehydrogenase [quinone] 1 (Homo sapiens), sequence (P15559 whole entry): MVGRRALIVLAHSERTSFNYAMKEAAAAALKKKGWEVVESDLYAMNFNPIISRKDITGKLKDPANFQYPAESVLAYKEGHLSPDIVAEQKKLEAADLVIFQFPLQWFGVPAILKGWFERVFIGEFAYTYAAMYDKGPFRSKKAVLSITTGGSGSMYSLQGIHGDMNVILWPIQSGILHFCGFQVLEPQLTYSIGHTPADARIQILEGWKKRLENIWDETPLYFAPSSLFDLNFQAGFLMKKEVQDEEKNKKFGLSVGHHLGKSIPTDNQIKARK
structure (smiles),measurement,setting,value
Cc1cc2c(cc1C)-c1oc(CNc3ccc(CN4CCOCC4)cc3)c(C)c1C(=O)C2=O,Activity,[1],73 µmol NADPH/min/µmol enzyme
same,fold change (FC),[2],0.99
same,Activity,[3],Non-Toxic
same,fold change (FC),[4],2.96
same,solubility,[5],360 µg/mL
same,fold change (FC),[6],2
same,solubility,[7],> 1000 µg/mL
same,Activity,[8],18.6 nmol/mg
same,Activity,[9],18%
same,fold change (FC),[10],1.01
same,fold change (FC),[11],1.1
